According to US20250084074A1, “SUBSTITUTED HETEROCYCLES AS HSET INHIBITORS” (MERCK PATENT GMBH, priority 2022, published 2025):

The compounds below were run against HSET full length protein (Homo sapiens (Human), UniProt Q9BW19) (assay: HSET ADP-Glo Assay S - 3 μM ATP). Settings: 5 nM HSET, 70 μg/mL microtubule, 80 min at rt, read-out: COMBINED HSET ADP GLO IC50.
Assay type: biochemical
Protocol: Example 281: Testing compounds of the present invention for inhibitory activities against HSET—HSET ADP-Glo Assay S—3 μM ATP
Reagents: (+4° C. Storage) • Paclitaxel Prod.No.TXD.01 2 mM in DMSO (from Universal Biologicals Cambridge). • Tubulin Protein (Pre-formed Microtubules): Bovine Brain Prod.No.MT001-XL Lot.025 10 mg/mL (from Universal Biologicals Cambridge).
Reagents: (−80° C. Storage) • MT001-XL—Tubulin Protein (Pre-formed Microtubules): Bovine Brain—reconstituted in buffer—15 mM PIPES pH7, 1 mM MgCl2, 20 μM paclitaxel (aliquots at 10 mg/mL) from Universal Biologicals Cambridge. • HSET full length protein—Current batch is FL HSET Prep1 (SEQ-000096_002-01_01) • Buffer is 20 mM Hepes pH 7.5, 200 mM NaCl, 2 mM TCEP, 5% glycerol (5 μL aliquots at 10.2 μM)
Reagents: (−20° C. Storage) • ADP-Glo Kinase Assay kit (Promega Prod.No.V9102) 10,000 assay points • ADP-Glo reagent (50 mL), Kinase Detection Reagent (100 mL), and Ultrapure ATP (10 mM) aliquoted
Buffer Stocks (filtered and stored at rt for up to 1 month) • HEPES acid, 4-(2-Hydroxyethyl)piperazine-1-ethanesulfonic acid MW:238, 238.3 mg/mL=1 M • 7149 mg/30 mL=1M (pH to 6.8 with 5 M NaOH) • PIPES, 1,4-Piperazinediethanesulfonic acid MW: 302.4, 30.24 mg/mL=100 mM; 907.2 mg/30 mL=100 mM (pH to 7 with 5 M NaOH, white cloudy suspension until the pH changes) • EGTA, Ethylene glycol-bis(2-aminoethylether)-N,N,N′,N′-tetraacetic acid MW: 380.35, 38.035 mg/mL=100 mM • 1901.75 mg/50 mL=100 mM (pH to ˜7 with 5 M NaOH)—takes a long time to get into solution and for pH to stabilize • Triton-X-100, MW: 625, 62.5 mg/mL=100 mM (6.25% w/v) (viscous, pipette Triton X-100 with a Gilson using a trimmed pipette tip)
ECHO Protocol • Create an ECHO intermediate plate by adding 24.5 μL DMSO to columns 1 & 2, and 40 μL DMSO to columns 23 & 24 of an ECHO 384PP plate • Add 100 nL of compound/DMSO per well in 384-well Proxi-Plate Plus (white) —Perkin Elmer Cat #6008289 using ECHO dose response protocol 100 nL normal to proxi_8pt_200 uM.
Assay buffer (Keep on ice): HEPES pH 6.8, MgCl2, EGTA, Triton X-100, DTT, HPLC H2O Microtubule Working Solution (3.2): • 1 ml PM buffer: PIPES pH 7.0, MgCl2, HPLC H2O, Paclitaxel, mix well, store at rt • Then add 26.4 μL of 10 mg/ml microtubules to 724 μL of the above PM buffer to make 750 μL of microtubule working solution @350 μg/mL microtubules (store at rt)
Stock HSET enzyme solution (3.1)—keep on ice • Add 1.33 μL 10.2 μM HSET Prepi (SEQ-000096_002-01_01) to 1358 μL assay buffer to make a 10 nM stock for a 5 nM final assay concentration (1/1020 dilution).
HSET/Microtubule working solution (3.3) • Mix solutions 3.1 and 3.2 in the ratio of 2.5:1 (1214.3 μL 3.1+485.7 μL 3.2) keep at rt for 15 min • 3.2 is diluted 3.5-fold, 3.1 is diluted 1.4-fold BLANK solution is 357 μL 2XAB+143 μL microtubule working solution 3.2. (Same proportions as HSET/Microtubule working solution (3.3))
ATP Working solution is 1 μL 10 mM UltraPure ATP (Promega kit)+999 μL ddH20 gives 10 μM ATP for a 3 μM final assay concentration, stored on ice.
Assay procedure in PROXIPLATE 384 PLUS WHITE (Perkin Elmer) plates (Remove 2.4 mL ADP Glo and 4.5 mL Kinase detection reagent from freezer to warm up to rt) • Add 3.5 μL BLANK solution to assay plate (column 12) • Add 3.5 μL HSET/Microtubule solution (3.3) (columns 1-11 & 13-24) • Centrifuge at 1000 rpm for 1 min • (pre-incubate enzyme and compound for 10 min)
Add 1.5 μL of 10 μM ATP to start reaction gives a final [HSET] of 5 nM, [ATP] of 3 μM and [microtubule] of 70 μg/mL, centrifuge at 1000 rpm for 1 min and incubated at rt for 80 min.
After the 80-minute incubation, stop reaction by adding 5 μL ADP-Glo reagent to all wells. Centrifuge for 1 min at 1000 rpm, leave for 40 min at rt.
In the dark/away from direct light, add 10 μL Kinase Detection Reagent (KDR) to all wells, Seal plate with a Topseal (Perkin Elmer Cat #6050185) and centrifuge as above, leave for 40 min at rt covered in foil. […]

Chain of HSET full length protein (Q9BW19 whole entry): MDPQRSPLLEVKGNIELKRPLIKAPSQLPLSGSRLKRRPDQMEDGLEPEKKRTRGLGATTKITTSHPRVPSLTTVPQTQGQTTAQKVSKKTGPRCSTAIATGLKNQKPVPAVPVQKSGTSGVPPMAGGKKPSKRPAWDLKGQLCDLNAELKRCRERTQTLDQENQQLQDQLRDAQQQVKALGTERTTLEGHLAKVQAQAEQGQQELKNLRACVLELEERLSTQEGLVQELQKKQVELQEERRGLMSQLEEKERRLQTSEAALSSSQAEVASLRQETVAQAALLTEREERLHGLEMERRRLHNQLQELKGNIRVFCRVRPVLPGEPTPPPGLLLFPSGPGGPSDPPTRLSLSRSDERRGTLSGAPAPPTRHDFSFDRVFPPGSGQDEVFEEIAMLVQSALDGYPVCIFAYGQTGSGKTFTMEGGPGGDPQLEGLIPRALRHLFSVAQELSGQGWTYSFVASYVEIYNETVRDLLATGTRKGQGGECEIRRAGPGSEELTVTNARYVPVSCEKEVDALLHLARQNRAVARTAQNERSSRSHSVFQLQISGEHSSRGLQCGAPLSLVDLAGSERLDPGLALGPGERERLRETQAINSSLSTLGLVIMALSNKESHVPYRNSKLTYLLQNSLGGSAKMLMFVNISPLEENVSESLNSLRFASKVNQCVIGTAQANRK

Structure (SMILES) | IC50
CCOC(=O)c1sc(NC(=O)CCNC(=O)c2cccc(-c3ncon3)c2)nc1C [Example 23, Ethyl 2-(3-(3-(1,2,4-oxadiazol-3-yl)benzamido)propanamido)-4-methylthiazole-5-carboxylate] | 146 nM
CCCOC(=O)c1cc(NC(=O)CCNC(=O)c2cc(C)cc(-c3noc(C)n3)c2)nn1C [Example 27, Propyl 1-methyl-3-(3-(3-methyl-5-(5-methyl-1,2,4-oxadiazol-3-yl)benzamido)propanamido)-1 H-pyrazole-5-carboxylate] | 116 nM
Cc1nc(-c2cc(Cl)cc(C(=O)NCCC(=O)Nc3nc(C)c(C(C)(C)C)s3)c2)no1 [Example 31, N-[3-[(5-tert-butyl-4-methyl-thiazol-2-yl)amino]-3-oxo-propyl]-3-chloro-5-(5-methyl-1,2,4-oxadiazol-3-yl)benzamide] | 191 nM
CCOC(=O)c1sc(NC(=O)CCNC(=O)c2cccc(-c3nc(C)no3)c2)nc1C [Example 34, Ethyl 4-methyl-2-(3-(3-(3-methyl-1,2,4-oxadiazol-5-yl)benzamido)propanamido)thiazole-5-carboxylate] | 101 nM
Cc1nc(-c2cccc(C(=O)NCCC(=O)Nc3nc(C)c(C(=O)OCC4CC4)s3)c2)no1 [Example 35, Cyclopropylmethyl 4-methyl-2-(3-(3-(5-methyl-1,2,4-oxadiazol-3-yl)benzamido)propanamido)thiazole-5-carboxylate] | 31 nM
CCOC(=O)c1sc(NC(=O)CCNC(=O)c2cccc(-c3noc(CC)n3)c2)nc1C [Example 36, Ethyl 2-(3-(3-(5-ethyl-1,2,4-oxadiazol-3-yl)benzamido)propanamido)-4-methylthiazole-5-carboxylate] | 2100 nM
CCOC(=O)c1sc(NC(=O)CCNC(=O)c2cccc(-c3nnc(C)o3)c2)nc1C [Example 37, Ethyl 4-methyl-2-(3-(3-(5-methyl-1,3,4-oxadiazol-2-yl)benzamido)propanamido)thiazole-5-carboxylate] | 260 nM
CCOC(=O)c1sc(NC(=O)CCNC(=O)c2cccc(-c3nnn(C)n3)c2)nc1C [Example 38, Ethyl 4-methyl-2-(3-(3-(2-methyl-2H-tetrazol-5-yl)benzamido)propanamido)thiazole-5-carboxylate] | 27 nM
Cc1nc(NC(=O)CCNC(=O)c2cccc(-c3nnn(C)n3)c2)sc1C(=O)OC(C)(C)C [Example 39, tert-Butyl 4-methyl-2-[3-[[3-(2-methyltetrazol-5-yl)benzoyl]amino]propanoylamino]thiazole-5-carboxylate] | 8 nM
Cc1nc(NC(=O)CCNC(=O)c2cccc(-c3nnn(C)n3)c2)sc1C(=O)OC(C)C [Example 40, Isopropyl 4-methyl-2-[3-[[3-(2-methyltetrazol-5-yl)benzoyl]amino]propanoylamino]thiazole-5-carboxylate] | 10 nM
Cc1nc(NC(=O)CCNC(=O)c2cccc(-c3nnn(C)n3)c2)sc1C(C)(C)C [Example 41, N-[3-[(5-tert-butyl-4-methyl-thiazol-2-yl)amino]-3-oxo-propyl]-3-(2-methyltetrazol-5-yl)benzamide] | 184 nM
CCOC(=O)c1sc(NC(=O)CCNc2nccc3ccc(-c4noc(C)n4)cc23)nc1C [Example 45, Ethyl 4-methyl-2-[3-[[7-(5-methyl-1,2,4-oxadiazol-3-yl)-1-isoquinolyl]amino]propanoylamino]thiazole-5-carboxylate] | 5 nM

Next, values leading:

IC50 | Structure (SMILES)
55 nM | CCOC(=O)c1sc(NC(=O)CCNC(=O)c2cc(Cl)cc(-c3noc(C)n3)c2)nc1C [Example 24, Ethyl 2-(3-(3-chloro-5-(5-methyl-1,2,4-oxadiazol-3-yl)benzamido)-propanamido)-4-methylthiazole-5-carboxylate]
13 nM | CCCOC(=O)c1sc(NC(=O)CCNC(=O)c2cc(Cl)cc(-c3noc(C)n3)c2)nc1C [Example 25, Propyl 2-(3-(3-chloro-5-(5-methyl-1,2,4-oxadiazol-3-yl)benzamido)propanamido)-4-methylthiazole-5-carboxylate]
13 nM | CCCOC(=O)c1sc(NC(=O)CCNC(=O)c2cc(C)cc(-c3noc(C)n3)c2)nc1C [Example 26, Propyl 4-methyl-2-(3-(3-methyl-5-(5-methyl-1,2,4-oxadiazol-3-yl)benzamido)propanamido)thiazole-5-carboxylate]
2240 nM | CCCOC(=O)c1sc(NC(=O)CCNC(=O)c2cc(C#N)cc(C(F)(F)F)c2)nc1C [Example 28, Propyl 2-(3-(3-cyano-5-(trifluoromethyl)benzamido)propanamido)-4-methylthiazole-5-carboxylate]
77 nM | CCCOC(=O)c1sc(NC(=O)CCNC(=O)c2cc(C(=O)OC)cc(C(C)(C)C)c2)nc1C [Example 29, Propyl 2-(3-(3-(tert-butyl)-5-(methoxycarbonyl)benzamido)propanamido)-4-methylthiazole-5-carboxylate]
186 nM | CCCOC(=O)c1sc(NC(=O)CCNC(=O)c2cc(C#N)cc(C(=O)OC)c2)nc1C [Example 30, Propyl 2-(3-(3-cyano-5-(methoxycarbonyl)benzamido)propanamido)-4-methylthiazole-5-carboxylate]
11 nM | CCCOC(=O)c1sc(NC(=O)CCNC(=O)c2cc(-c3noc(C)n3)cc(C(F)(F)F)c2)nc1C [Example 32, Propyl 4-methyl-2-(3-(3-(5-methyl-1,2,4-oxadiazol-3-yl)-5-(trifluoromethyl)benzamido)propanamido)thiazole-5-carboxylate]
161 nM | CCCOC(=O)c1sc(NC(=O)CCNC(=O)c2cc(C(=O)OC)cc([N+](=O)[O-])c2)nc1C [Example 33, Propyl 2-[3-[(3-methoxycarbonyl-5-nitro-benzoyl)amino]propanoylamino]-4-methyl-thiazole-5-carboxylate]
1790 nM | CCOC(=O)c1cccc(C(=O)NCCC(=O)Nc2nc(C)c(C(=O)OCC)s2)c1 [Example 42, Ethyl 2-(3-(3-(ethoxycarbonyl)benzamido)propanamido)-4-methylthiazole-5-carboxylate]
44 nM | CCOC(=O)c1sc(NC(=O)CCNC(=O)c2cc(C)cc(-c3noc(C)n3)c2)nc1C [Example 43, Ethyl 4-methyl-2-(3-(3-methyl-5-(5-methyl-1,2,4-oxadiazol-3-yl)benzamido)propanamido)thiazole-5-carboxylate]
281 nM | CCCOC(=O)c1sc(NC(=O)CCNC(=O)c2cc(C(=O)OC)cc(-c3noc(C)n3)c2)nc1C [Example 44, Propyl 2-(3-(3-(methoxycarbonyl)-5-(5-methyl-1,2,4-oxadiazol-3-yl)benzamido)propanamido)-4-methylthiazole-5-carboxylate]
